Columns and labels:
Assay in all cases: relative viability (nuclei count vs DMSO), 5 days (fraction); higher = more cells survive
Dasatinib + Vorinostat = compound: Cc1nc(Nc2ncc(C(=O)Nc3c(C)cccc3Cl)s2)cc(N2CCN(CCO)CC2)n1 [Dasatinib] + O=C(CCCCCCC(=O)Nc1ccccc1)NO [Vorinostat] (partner 1 µM)
Procedure, shortened: (§1)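 Relative viability is defined as nuclei in treated wells over nuclei in vehicle wells. Duplicate plates were run and medians reported. Lung cancer cell lines in 1536-well plates were dosed by pin tool one day after seeding, with one drug or with a fixed anchor-drug dose plus five library-drug doses (not always all listed) in √10 steps, and nuclei were counted after 5 days.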

ALW-II-49-7 + Bortezomib = compound: Cc1ccc(C(=O)Nc2cccc(C(F)(F)F)c2)cc1Nc1cncc(C(N)=O)c1 [ALW-II-49-7] + CC(C)C[C@H](NC(=O)[C@H](Cc1ccccc1)NC(=O)c1cnccn1)B(O)O [Bortezomib] (partner 0.002 µM)
Procedure, shortened: as §1

ALW-II-49-7 + Luminespib = compound: Cc1ccc(C(=O)Nc2cccc(C(F)(F)F)c2)cc1Nc1cncc(C(N)=O)c1 [ALW-II-49-7] + CCNC(=O)c1noc(-c2cc(C(C)C)c(O)cc2O)c1-c1ccc(CN2CCOCC2)cc1 [Luminespib] (partner 0.01 µM)
Procedure, shortened: as §1

XMD13-2 + Luminespib = compound: C1CC1C(=O)NC2=NNC3=C2C=CC(=C3)C4=CC(=CC=C4)C(=O)NC5CC5 [XMD13-2] + CCNC(=O)c1noc(-c2cc(C(C)C)c(O)cc2O)c1-c1ccc(CN2CCOCC2)cc1 [Luminespib] (partner 0.01 µM)
Procedure, shortened: as §1

Cell Line | relative viability (Dasatinib + Vorinostat; first compound 0.005 µM) | relative viability (Dasatinib + Vorinostat; first compound 0.01581 µM) | relative viability (Dasatinib + Vorinostat; first compound 0.05 µM) | relative viability (Dasatinib + Vorinostat; first compound 0.1581 µM) | relative viability (Dasatinib + Vorinostat; first compound 0.5 µM) | relative viability (ALW-II-49-7 + Bortezomib; first compound 0.08 µM) | relative viability (ALW-II-49-7 + Bortezomib; first compound 0.253 µM) | relative viability (ALW-II-49-7 + Bortezomib; first compound 0.8 µM) | relative viability (ALW-II-49-7 + Bortezomib; first compound 2.53 µM) | relative viability (ALW-II-49-7 + Bortezomib; first compound 8 µM) | relative viability (ALW-II-49-7 + Luminespib; first compound 0.08 µM) | relative viability (ALW-II-49-7 + Luminespib; first compound 0.253 µM) | relative viability (ALW-II-49-7 + Luminespib; first compound 0.8 µM) | relative viability (ALW-II-49-7 + Luminespib; first compound 2.53 µM) | relative viability (ALW-II-49-7 + Luminespib; first compound 8 µM) | relative viability (XMD13-2 + Luminespib; first compound 0.05 µM) | relative viability (XMD13-2 + Luminespib; first compound 0.1581 µM) | relative viability (XMD13-2 + Luminespib; first compound 0.5 µM) | relative viability (XMD13-2 + Luminespib; first compound 1.581 µM) | relative viability (XMD13-2 + Luminespib; first compound 5 µM)
LOU-NH91 | 0.822 | 0.846 | 0.687 | 0.583 | 0.429 | 0.425 | 0.529 | 0.549 | 0.316 | 0.489 | 0.384 | 0.363 | 0.321 | 0.276 | 0.283 | 0.355 | 0.318 | 0.374 | 0.347 | 0.318
LU99A | 0.464 | 0.448 | 0.515 | 0.366 | 0.288 | 1.29 | 1.17 | 1.05 | 1.07 | 1.27 | 0.253 | 0.212 | 0.194 | 0.217 | 0.288 | 0.262 | 0.295 | 0.254 | 0.178 | 0.267
LXF-289 | 0.754 | 0.779 | 0.762 | 0.495 | 0.254 | 0.973 | 0.965 | 1.02 | 1.1 | 1.04 | 0.731 | 0.626 | 0.825 | 0.688 | 0.848 | 0.717 | 0.618 | 0.72 | 0.76 | 0.723
NCI-H23 | 0.519 | 0.567 | 0.512 | 0.349 | 0.314 | 1.12 | 0.807 | 1.03 | 1.12 | 1.02 | 0.188 | 0.22 | 0.228 | – | 0.191 | 0.222 | 0.2 | 0.21 | 0.204 | 0.21
NCI-H322M | 0.668 | 0.535 | 0.426 | 0.311 | 0.258 | 1.09 | 1.36 | 1.43 | 1.32 | 1.26 | 0.897 | 0.762 | 0.965 | 0.868 | 0.833 | 0.874 | 0.834 | 0.804 | 0.89 | 1.23
NCI-H441 | 0.778 | 0.651 | 0.887 | 0.813 | 0.581 | 0.333 | 0.559 | 0.431 | 0.384 | 0.208 | 0.332 | 0.32 | 0.313 | 0.35 | 0.243 | 0.314 | 0.382 | 0.375 | 0.432 | 0.315
NCI-H460 | 0.659 | 0.619 | 0.877 | 0.475 | 0.315 | 0.869 | 1.04 | 1.04 | 0.956 | 1.05 | 0.0293 | 0.0319 | 0.0397 | 0.0303 | 0.0275 | 0.0335 | 0.0365 | 0.0372 | 0.0316 | 0.0324
NCI-H520 | 0.677 | 0.476 | 0.418 | 0.227 | 0.229 | 0.385 | 0.528 | – | 0.441 | 0.709 | 0.219 | 0.216 | 0.232 | 0.206 | 0.237 | 0.258 | 0.221 | 0.226 | 0.234 | 0.236
NCI-H596 | 0.59 | 0.384 | 0.412 | 0.313 | 0.322 | 0.672 | 0.99 | 1.18 | 1 | 0.953 | 0.929 | 0.943 | 1.18 | 1.1 | 1.12 | 0.987 | 1 | 0.909 | 0.903 | 1.2
NCI-H647 | 0.674 | 0.49 | 0.415 | 0.149 | 0.184 | 0.858 | 1.13 | 0.799 | 0.725 | 0.801 | 0.134 | 0.206 | 0.236 | 0.167 | 0.154 | 0.183 | 0.289 | 0.183 | 0.229 | 0.147
NCI-H650 | 0.413 | 0.564 | 0.381 | 0.384 | 0.287 | 0.649 | 0.906 | 0.913 | 0.88 | 0.663 | 0.853 | 0.972 | 0.632 | 0.722 | 0.526 | 0.854 | 0.757 | 0.854 | 0.822 | 0.668
NCI-H661 | 0.927 | 0.791 | 0.851 | 0.813 | 0.74 | 0.865 | 0.796 | 0.717 | – | 0.716 | 1.04 | 1.01 | 0.913 | 0.976 | 0.998 | 0.904 | 0.907 | 0.904 | 0.953 | 0.725
NCI-H727 | 1.18 | 0.97 | 0.841 | 0.871 | 0.264 | 0.678 | 1.09 | 0.67 | 0.895 | 0.787 | 0.419 | 0.336 | 0.392 | 0.367 | 0.239 | 0.475 | 0.326 | 0.352 | 0.34 | 0.378
NCI-H838 | 0.678 | 0.632 | 0.584 | 0.422 | 0.348 | 0.71 | 0.839 | 0.721 | 0.64 | 1.05 | 0.233 | 0.257 | 0.344 | 0.272 | 0.211 | 0.398 | 0.308 | 0.407 | 0.235 | 0.347
NCI-H1355 | 0.618 | 0.54 | 0.655 | 0.445 | 0.331 | 0.983 | 1.26 | 1.23 | 1.2 | 1.08 | 0.722 | 0.628 | 0.658 | 0.562 | 0.708 | 0.723 | 0.726 | 0.732 | 0.725 | 0.759
NCI-H1437 | 0.972 | 1.04 | 1.03 | 0.914 | 0.59 | 0.597 | 0.478 | – | 0.436 | 0.5 | 1.13 | 1.12 | 1.11 | 1.08 | 1.06 | 1.16 | 1.14 | 1.1 | 1.04 | 1.19
NCI-H1650 | 0.591 | 0.61 | 0.568 | 0.406 | 0.278 | 0.203 | 0.218 | 0.218 | 0.198 | 0.206 | 0.199 | 0.169 | 0.209 | 0.19 | 0.206 | 0.187 | 0.21 | 0.209 | 0.19 | 0.21
NCI-H1651 | 0.546 | 0.433 | 0.481 | 0.465 | 0.359 | 1.06 | 0.976 | 1.04 | 0.933 | 0.936 | 0.637 | 0.802 | 0.801 | 0.644 | 0.876 | 0.969 | 0.916 | 0.714 | 0.773 | 0.886
NCI-H1666 | 1.2 | 1.06 | 1.23 | 1.07 | 0.761 | 0.663 | 0.79 | 0.87 | 1.04 | 0.928 | 0.951 | 0.999 | 1.04 | 1.12 | 1 | 1 | 0.992 | 0.965 | 1.03 | 1.01
NCI-H1734 | 0.721 | 0.71 | 0.703 | 0.529 | 0.496 | 1.07 | 1.14 | 0.846 | 0.823 | 0.738 | 0.209 | 0.177 | 0.169 | 0.181 | 0.186 | 0.259 | 0.179 | 0.179 | 0.192 | 0.177
NCI-H1755 | 0.655 | 0.718 | 0.568 | 0.421 | 0.374 | 0.963 | 1.04 | 0.963 | 0.923 | 0.849 | 0.341 | 0.497 | 0.421 | 0.283 | 0.268 | 0.441 | 0.502 | 0.419 | 0.44 | 0.433
NCI-H1915 | 0.539 | 0.483 | 0.446 | 0.374 | 0.119 | 0.648 | 1 | 0.918 | 0.931 | 0.67 | 0.745 | 0.612 | 0.679 | 0.493 | 0.441 | 0.867 | 0.859 | 0.833 | 0.717 | 0.635
NCI-H1975 | 0.668 | 0.613 | 0.654 | 0.356 | 0.299 | 0.274 | 0.485 | 0.333 | 0.338 | 0.319 | 0.431 | 0.165 | 0.235 | 0.292 | 0.198 | 0.169 | 0.253 | 0.172 | 0.197 | 0.191
NCI-H1993 | 0.722 | 0.73 | 0.692 | 0.394 | 0.435 | 1.14 | 1.19 | 1.01 | 1.13 | 1.33 | 0.701 | 0.705 | 0.95 | 0.793 | 1.14 | 1 | 0.663 | 0.833 | 0.801 | 1.09
NCI-H2009 | 0.75 | 0.681 | 0.762 | 0.426 | 0.133 | 1 | 1.03 | 0.96 | 0.783 | 0.512 | 1.04 | 1.02 | 1.04 | 0.845 | 0.728 | 1.01 | 1.01 | 1.01 | 1.02 | 1.19
NCI-H2023 | 0.681 | 0.688 | 0.568 | 0.561 | 0.429 | 1.05 | 0.889 | 1 | 0.942 | 0.666 | 0.524 | 0.754 | 0.919 | 0.682 | 0.476 | 0.884 | 0.703 | 0.954 | 0.712 | 0.913
NCI-H2085 | 0.831 | 0.632 | 0.567 | 0.259 | 0.202 | 0.989 | 1 | 1.13 | 1.16 | 0.969 | 0.405 | 0.465 | 0.445 | 0.4 | 0.44 | 0.447 | 0.494 | 0.491 | 0.497 | 0.423
